Source: publication PMC3629977 (Journal of nuclear medicine : official publication, Society …, 2010)
Bridge positions count the residues as written; N and C are the ends. Square brackets hold non-standard residues; d marks the D form. Peptide text beside a SMILES is read from it. * marks the point of attachment. 2Nal = N[C@@H](Cc1ccc2ccccc2c1)C(=O)O; Benzoyl(4-F) = O=C(c1ccc(F)cc1)*; Cit = NC(=O)NCCC[C@H](N)C(=O)O

Assays:
[1] = test system: stem cells from the bone marrow; conditions: compared with AMD3100/plerixafor; cited from earlier work
CXCR4 = conditions: cited from earlier work
CHO-CXCR4 tumors [2] = conditions: in vivo
CHO-CXCR4 tumors [3] = conditions: 4-^18F-T140 alone, mice bearing CHO and CHO-CXCR4 tumors; Fig. 5A: 2 h after injection, 50 μCi
red blood cells = conditions: mouse, in vivo
[4] = female, athymic nude, mouse, iv, 3 h

N=C(N)NCCC[C@H](NC(=O)[C@@H]1CSSC[C@H](NC(=O)[C@H](Cc2ccc3ccccc3c2)NC(=O)[C@H](CCCNC(=N)N)NC(=O)[C@H](CCCNC(=N)N)NC(=O)c2ccc(F)cc2)C(=O)N[C@@H](Cc2ccc(O)cc2)C(=O)N[C@@H](CCCNC(N)=O)C(=O)N[C@@H](CCCCN)C(=O)N[C@H](CCCCN)C(=O)N2CCC[C@H]2C(=O)N[C@@H](Cc2ccc(O)cc2)C(=O)N[C@@H](CCCNC(=N)N)C(=O)N[C@@H](CCCNC(N)=O)C(=O)N1)C(N)=O [4-F-T140, 4-F-benzoyl-TN14003] ({Benzoyl(4-F)}-RR[2Nal]CY[Cit]K[dK]PYR[Cit]CR-NH2; disulfide 4-13)
in vivo mobilization of stem cells from the bone marrow [1]: increased in vivo mobilization of stem cells from the bone marrow
CXCR4 antagonist selectivity (CXCR4): highly selective CXCR4 antagonist

N=C(N)NCCC[C@H](NC(=O)[C@@H]1CSSC[C@H](NC(=O)[C@H](Cc2ccc3ccccc3c2)NC(=O)[C@H](CCCNC(=N)N)NC(=O)[C@H](CCCNC(=N)N)NC(=O)c2ccc(F)cc2)C(=O)N[C@@H](Cc2ccc(O)cc2)C(=O)N[C@@H](CCCNC(N)=O)C(=O)N[C@@H](CCCCN)C(=O)N[C@H](CCCCN)C(=O)N2CCC[C@H]2C(=O)N[C@@H](Cc2ccc(O)cc2)C(=O)N[C@@H](CCCNC(=N)N)C(=O)N[C@@H](CCCNC(N)=O)C(=O)N1)C(N)=O [4-^18F-T140, 4-^18F-benzoyl-TN14003] ({Benzoyl(4-F)}-RR[2Nal]CY[Cit]K[dK]PYR[Cit]CR-NH2; disulfide 4-13)
tumor-to-blood ratio (CHO-CXCR4) (CHO-CXCR4 tumors [2]; [4]): 0.19 ± 0.04
tumor-to-muscle ratio (CHO-CXCR4) (CHO-CXCR4 tumors [2]; [4]): 2.94 ± 0.16
difference of uptake between CHO-CXCR4 and CXCR4-negative CHO tumors (CHO-CXCR4 tumors [2]): not statistically significant
PET visualization of tumors (CHO-CXCR4 tumors [3]): clearly showed both tumors
binding to red blood cells (red blood cells): bind specifically to red blood cells in vitro and in vivo
